The values that follow come from US7238469B2, “Carbon monoxide improves outcomes in tissue and organ transplants and suppresses apoptosis” (priority 2001, dated 2007).

Some results are limits rather than exact numbers.

Data set [1] deals with mouse hearts transplanted into rats. Nature of the data set: Immunohistology of cardiac grafts (thrombosis, apoptosis). In kind it is in vivo, BALB/c mouse hearts, Lewis rats. The conditions noted are these: for vascular thrombosis in graft: 3 days after transplantation. As for the experimental part: Grafts were harvested 3 days after transplantation, snap-frozen in liquid nitrogen, and stored at −80° C. Cryostat sections were fixed and stained as described previously (Soares et al, Nature Med. 4:1073, 1998). Rat leukocyte populations were analyzed by using anti-rat leukocyte common Ag (LCA, CD45; OX-1), Éé TCR (TCRÉé-chains; R73), B cell (CD45RB; OX-33), NK cell (NKR-P1; 3.2.3), and MΦ (CD68; ED-1), mAbs (Serotec, Harlan Bioproducts for Science, Indianapolis, Ind.). Detection of fibrin/fibrinogen was conducted by using a rabbit anti-human fibrin/fibrinogen polyclonal Ab (Dako, Carpinteria, Calif.). Intragraft complement activation was detected by using an anti-rat Clq (The Binding Site, Birmigham, U. K.), C3 (ED11; Serotec), or C5b-9 mAb (Dako). Rat IgM was detected by using the mouse anti-rat IgM mAb MARM-4 (a kind gift of Dr. H. Bazin, University of Louvain, Brussels, Belgium). Isotype-matched mAbs or purified Ig, as well as a control for residual endogenous peroxidase activity, were included in each experiment. Detection of apoptosis was carried out by using ApopTagO in situ apoptosis detection kit (Oncor, Gaithersburg, Md.) according to the manufacturer's instructions.
Mouse hearts were transplanted into CVF plus CsA-treated rats. SnPPIX or FePPIX was administered and graft recipients were exposed to CO (250–400 ppm). Grafts were harvested 3 days after transplantation (n=3 per group) and stained for rat IgM, rat and mouse complement C1q, rat and mouse P-selectin, rat and mouse fibrin/fibrinogen, and rat CD45 expressing leukocytes. […] HO-2, HO-1, and ferritin were detected in graft endothelial and smooth muscle cells as well as in cardiac myocytes (data not shown). There was only minimal vascular thrombosis or infiltration by host leukocytes usually associated with focal areas of infarction (data not shown). There was low but detectable P-selectin expression on the vascular endothelium (data not shown). […] Thrombi were consistently observed in large coronary vessels at the base of the heart. There were no detectable P-selectin-expressing platelet aggregates in the microvasculature (data not shown). There was extensive graft infiltration by host neutrophils as well as by CD45^++ leukocytes expressing the monocyte/MΦ marker CD68/ED-1 and MHC class II Ags (data not shown). Infiltrating monocyte/MΦ were found near arterioles and scattered throughout the myocardium, associated with areas of infarction.

Data set [2] shares this test system. Kind of data set: Mouse-to-rat heterotopic cardiac transplant, graft survival. In kind it is in vivo, BALB/c mouse hearts, Lewis rats. The conditions noted are these: for graft outcome: mouse hearts into rats, FePPIX with CVF plus CsA, CO 400 ppm in SnPPIX-treated rats. The text has this: BALB/c mouse hearts were used as donor organs for transplantation into inbred adult male Lewis rats (Harlan Sprague-Dawley, Indianapolis, Ind.). Animals were housed in accordance with guidelines from the American Association for Laboratory Animal Care, and research protocols were approved by the Institutional Animal Care and Use Committees of the Beth Israel Deaconess Medical Center.
Animals were anesthetized by a combination of methoxyflurane (Pitman-Moore, Mundelain, Ill.) inhalation and pentobarbital (Abbott, North Chicago, Ill.) at a dose of 30–50 mg/kg i.p. during all procedures. Heterotopic cardiac transplants were performed as described previously (Berk et al., Physiol Rev. 8:999–1030, 2001; Petkova et al., J Biol. Chem. 276:7932–7936, 2001). Graft survival was assessed daily by palpation. Rejection was diagnosed by cessation of ventricular contractions and confirmed by histologic examination.
Cobra venom factor (CVF; which blocks complement activation) (Quidel, San Diego, Calif.) was administered i.p. on day −1 (60 U/kg) and on day 0 (20 U/kg) with respect to the day of transplantation (day 0). Cyclosporin A (CsA; Novartis, Basel, Switzerland), which blocks T cell activation, was administered i.m. (15 mg/kg) starting at day 0 and daily thereafter until the end of each experiment. Tin protoporphyrin (SnPPIX), cobalt protoporphyrin (CoP-PIX), and iron protoporphyrin (FePPIX; Porphyrin Products, Logan, Utah) were diluted in 100 mM NaOH to a stock solution of 50 mM and kept at −70° C. until used. Light exposure was limited as much as possible. Both SnPPIX and FePPIX were administered i.p. (30 μM/kg) in PBS. FePPIX and SnPPIX were administered to the donor at days −2 and −1 (30 μM/kg) and to the recipient at the time of transplantation (day 0) and daily thereafter (30 μM/kg).
Briefly, CO at a concentration of 1% (10,000 parts per million; ppm) in compressed air was mixed with balanced air (21% oxygen) in a stainless steel mixing cylinder before entering the exposure chamber. CO concentrations were controlled by varying the flow rates of CO in a mixing cylinder before delivery to the chamber. Because the flow rate is primarily determined by the O2 flow, only the CO flow was changed to deliver the final concentration to the exposure chamber. A CO analyzer (Interscan Corporation, Chatsworth, Calif.) was used to measure CO levels continuously in the chamber. Graft donors were placed in the CO exposure chamber 2 days before transplantation. Graft recipients were placed in the exposure chamber immediately following transplantation and were kept in the exposure chamber for 14 (n=3) or 16 (n=3) days. CO concentration was maintained between 250 and 400 ppm at all times. Animals were removed daily from the chamber to assess graft survival and to administer CsA, SnPPIX, or FePPIX, as described above.

Where [3] appears, read: rats treated with SnPPIX or FePPIX.

`[C-]#[O+]` [CO, carbon monoxide]: in data set [1] (SnPPIX-treated rats exposed to CO 250–400 ppm), the “vascular thrombosis in graft” value is “no signs of vascular thrombosis”. Moreover, the “apoptosis in transplanted mouse hearts” value in data set [1] (rats treated with SnPPIX and exposed to CO) was “Apoptosis did not occur”. Moreover, the “dose of CO used as fraction of the lethal dose” value in data set [2] (400–500 ppm) is listed as “approximately one-twentieth”. Further, the “graft outcome” value in data set [2] is “survived long term”. For the same molecule, in data set [2] (rats and mice exposed to CO), the untoward reactions entry was “did not exhibit untoward reactions”. In addition, in data set [2] (rats treated with SnPPIX, CO 400 ppm discontinued 14 or 16 days after transplantation), the “time grafts continued to function” value was above 50 days.

Consider `C=CC1=C(C)c2cc3[n-]c(cc4[n-]c(cc5nc(cc1n2)C(C)=C5C=C)c(C)c4CCC(=O)O)c(CCC(=O)O)c3C.[Fe+2]` [FePPIX, iron protoporphyrin], for which the “apoptosis in transplanted mouse hearts” value in data set [1] (setting [3]) is listed as “Apoptosis did not occur”. Moreover, the “graft outcome” value in data set [2] is “did not lead to graft rejection”.

Consider `C=Cc1c2[n-]c(c1C)/C=c1\[n-]/c(c(C)c1C=C)=C\c1[n-]c(c(CCC(=O)O)c1C)C=c1[n-]/c(c(C)c1CCC(=O)O)=C\2.[Sn+4]` [SnPPIX, tin protoporphyrin IX], for which the “vascular thrombosis in graft” value in data set [1] (CVF plus CsA-treated rats, SnPPIX) is “widespread vascular thrombosis of large coronary vessels”. Further, the “apoptosis in transplanted mouse hearts” value in data set [1] (setting [3]) was “widespread apoptosis of endothelial cells and cardiac myocytes”. In addition, the “time to graft rejection after transplantation” value in data set [2] (SnPPIX to donor and recipient, despite CVF plus CsA) was in the range of 3 to 7 days.
